Common to all, as to format: cell-based
Assay [1] has as its system Ba/F3 cells expressing EGFR mutations. Put plainly: Cell proliferation assay, Ba/F3 cells expressing EGFR mutations (CellTiter-Glo, 72 hours). The note with it: CellTiter-Glo. In a few lines:
(§1)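 Ba/F3 cells (5000/well) and PC-9 cells (500/well, RPMI1640 with 10% FBS) were plated overnight and then dosed with a compound concentration series. Viable cells were read at day 0 (G0) and after treatment (G3). GI50 came from curve fits of G0-corrected proliferation relative to DMSO.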

A further assay has as its system A-431. Briefly: Cell proliferation GI50, A-431 cells (Table 6). On the procedure:
[Worded in the source for another cell line; this cell line is reported under the same test.] Ba/F3 cells expressing EGFR mutations were seeded in 384-well plates at 5000 cells/well in RPMI1640 medium containing […]. PC-9 at 500 cells/well was seeded into 384-well plates in RPMI1640 medium with 10% FBS. After overnight incubation, the assay plates were dosed with compounds at a series of concentrations. Alongside dosing the assay plates, the day 0 plate was processed using CellTiter-Glo® Luminescent Cell Viability Assay (Promega) to measure the number of viable cells (G0). The assay plates were further incubated for 72 hours and the number of viable cells (G3) was measured. The percentage of proliferation was calculated as: […]=100×(G3 value of sample well−G0 value)/(G3 value of DMSO control−G0 value). The concentration of compound producing 50% proliferation inhibition (GI50) was further calculated in best-fit curves using XLFit software. N/A=not available.

The next assay relates to PC-9. Briefly: Cell proliferation assay, PC-9 cells (CellTiter-Glo, 72 hours). The settings on record: PC9 cells, CellTiter-Glo, read-out: PC9 GI50. In a few lines:
as §1
(Cellular ATP, detected with luciferase, serves as a proxy for viable cell number.)

Setting [2] is: Mus musculus, BaF3, 72 h, BaF3 cells, EGFR DEL19-C797S, read-out: DEL19-C797S/BaF3 GI50.
[3] abbreviates: Mus musculus, BaF3, 72 h, BaF3 cells, EGFR DEL19-T790-C797S, read-out: DEL19-T790-C797S/BaF3 GI50.
The mark [4] stands for this setting: Mus musculus, BaF3, 72 h, BaF3 cells, EGFR L858R, read-out: L858R/BaF3 GI50.
The mark [5] stands for this setting: Mus musculus, BaF3, 72 h, BaF3 cells, EGFR L858R-C797S, read-out: L858R-C797S/BaF3 GI50.
Where [6] appears, read: Mus musculus, BaF3, 72 h, BaF3 cells, EGFR L858R-T790-C797S, read-out: L858R-T790-C797S/BaF3 GI50.
Where [7] appears, read: Mus musculus, BaF3, 72 h, BaF3 cells, EGFR L858R-T790M, read-out: L858R-T790M/BaF3 GI50.
Where [8] appears, read: Mus musculus, BaF3, 72 h, EGFR DEL19-T790M, read-out: DEL19-T790M GI50.
Setting [9] is: Homo sapiens, A-431, A-431 cells.
Where [10] appears, read: BaF3 cells, EGFR DEL19-C797S, read-out: DEL19-C797S/BaF3 GI50.
Where [11] appears, read: BaF3 cells, EGFR DEL19-T790-C797S, read-out: DEL19-T790-C797S/BaF3 GI50.
The mark [12] stands for this setting: BaF3 cells, EGFR L858R, read-out: L858R/BaF3 GI50.
The mark [13] stands for this setting: BaF3 cells, EGFR L858R-C797S, read-out: L858R-C797S/BaF3 GI50.
The mark [14] stands for this setting: BaF3 cells, EGFR L858R-T790-C797S, read-out: L858R-T790-C797S/BaF3 GI50.
Where [15] appears, read: BaF3 cells, EGFR L858R-T790M, read-out: L858R-T790M/BaF3 GI50.
[16] abbreviates: EGFR DEL19-T790M, read-out: DEL19-T790M GI50.

Where two headings read alike, the source gives them in different places.

Consider `CCN1CCOc2c(cnn2C)-c2cc(cn(C)c2=O)C(=O)Nc2nc3ccccc3n2C(C)(C)C1` [Example A7, 10-Ethyl-5,12,12,26-tetramethyl-7-oxa-4,5,10,13,20,22,26-heptaazapentacyclo[22.3.1.0^{2,6}.0^{13,21}.0^{14,19}]octacosa-1(28),2(6),3,14,16,18,20,24-octaene-23,27-dione], for which the GI50 in assay [1] (setting [2]) worked out at 279 nM; in assay [1] (setting [3]) it was 830 nM; in assay [1] (setting [4]), 1050 nM; in assay [1] (setting [5]), 1160 nM; in assay [1] (setting [6]), 976 nM; in assay [1] (setting [7]), 803 nM. The GI50 in assay [1] (setting [8]) is 768 nM; with A-431 (setting [9]), 1410 nM; in the assay on PC-9 (Homo sapiens, PC-9, 72 h), 424 nM.

In the case of `CN1CC2CN(c3ccc4nc5n(c4c3)C34CCC(CN(CCOc6c(cnn6C)-c6cc(cn(C)c6=O)C(=O)N5)C3)C4)CC2C1` (single isomer, unassigned) [Example A68A], the GI50 was found to be 196 nM in assay [1] (setting [10]); 409 nM in assay [1] (setting [11]); 480 nM in assay [1] (setting [12]); 402 nM in assay [1] (setting [13]); 366 nM in assay [1] (setting [14]); 1120 nM in assay [1] (setting [15]). Besides, the GI50 in assay [1] (setting [16]) was 543 nM; with A-431 (A-431 cells), 5320 nM; in the assay on PC-9, 460 nM.

With `C[C@@H]1CCCOc2c(cnn2C)-c2cc(cn(C)c2=O)C(=O)Nc2nc3ccc(N4CCC5(CCN(C)C5)C4)cc3n2C1` (some centres unmarked) [Example A34], the GI50 in assay [1] (setting [2]) came to 1.1 nM; in assay [1] (setting [3]), 1.3 nM; in assay [1] (setting [4]) it was 4.6 nM; in assay [1] (setting [5]) it was 4.2 nM; in assay [1] (setting [6]), 8.9 nM; in assay [1] (setting [7]), 9.8 nM. Further, the GI50 came to 5 nM in assay [1] (setting [8]); 587 nM in the assay with A-431 (setting [9]); 9.1 nM with PC-9 (Homo sapiens, PC-9, 72 h).

In the case of `CN(C)CCN(C)c1ccc2nc3n(c2c1)CCN(CC(F)F)CCOc1c(cnn1C)-c1cc(cn(C)c1=O)C(=O)N3` [Example A4, 10-(2,2-Difluoroethyl)-16-{[2-(dimethylamino)ethyl](methyl)amino}-5,26-dimethyl-7-oxa-4,5,10,13,20,22,26-heptaazapentacyclo[22.3.1.0^{2,6}.0^{13,21}.0^{14,19}]octacosa-1(28),2(6),3,14,16,18,20,24-octaene-23,27-dione], the GI50 was determined as 77 nM in assay [1] (setting [2]); 811 nM in assay [1] (setting [3]); 56 nM in assay [1] (setting [4]); 63 nM in assay [1] (setting [5]); 76 nM in assay [1] (setting [6]); 585 nM in assay [1] (setting [7]). In addition, the GI50 in assay [1] (setting [8]) was determined as 788 nM; with A-431 (setting [9]), 2540 nM; in the assay with PC-9 (Homo sapiens, PC-9, 72 h) it was 183 nM.

In the case of `C[C@@H]1CCCOc2c(cnn2C)-c2cc(cn(C)c2=O)C(=O)Nc2nc3ccc(N4CC5CC4CN5C)cc3n2C1` (some centres unmarked) [Example A31], the GI50 in assay [1] (setting [2]) amounted to 2.3 nM; in assay [1] (setting [3]), 3.4 nM; in assay [1] (setting [4]), 25 nM; in assay [1] (setting [5]) it was 10 nM; in assay [1] (setting [6]), 13 nM; in assay [1] (setting [7]), 30 nM. In addition, the GI50 in the assay on A-431 (setting [9]) worked out at 790 nM; with PC-9 (Homo sapiens, PC-9, 72 h) it was 35 nM.

For the compound `Cn1ncc2c1OCCN1CCC(C)(C1)n1c(nc3ccc(N4CCOCC4)cc31)NC(=O)c1cc-2c(=O)n(C)c1` (centres unmarked) [Example A11, 5,13,27-trimethyl-17-(morpholin-4-yl)-7-oxa-4,5,10,14,21,23,27-heptaazahexacyclo[23.3.1.1^{10,13}.0^{2,6}.0^{14,22}.0^{15,20}]triaconta-1(29),2(6),3,15,17,19,21,25-octaene-24,28-dione], the GI50 in assay [1] (setting [2]) was found to be 666 nM; in assay [1] (setting [3]), 1750 nM; in assay [1] (setting [4]) it was 2690 nM; in assay [1] (setting [5]) it was 2250 nM; in assay [1] (setting [6]), 2150 nM; in assay [1] (setting [7]), 1720 nM. The GI50 turned out to be 1790 nM in assay [1] (setting [8]); 2610 nM in the assay with A-431 (setting [9]); 903 nM with PC-9 (Homo sapiens, PC-9, 72 h).

As for `CN(C)C1CN(c2ccc3nc4n(c3c2)C23CCC(CN(CCOc5c(cnn5C)-c5cc(cn(C)c5=O)C(=O)N4)C2)C3)CC1(F)F` (single isomer, unassigned) [Example A99A], the GI50 in assay [1] (setting [10]) worked out at 966 nM; in assay [1] (setting [11]), 2900 nM; in assay [1] (setting [12]) it was 372 nM; in assay [1] (setting [13]), 1560 nM; in assay [1] (setting [14]), 874 nM; in assay [1] (setting [15]) it was 2630 nM. The GI50 is 1250 nM in assay [1] (setting [16]), 4930 nM with A-431 (setting [9]) and 3090 nM with PC-9.

As to `CN(C)C1CN(c2ccc3nc4n(c3c2)C23CCC(CN(CCOc5c(cnn5C)-c5cc(cn(C)c5=O)C(=O)N4)C2)C3)C1` (single isomer, unassigned) [Example A65A], the GI50 stood at 209 nM in assay [1] (setting [10]); 452 nM in assay [1] (setting [11]); 945 nM in assay [1] (setting [12]); 561 nM in assay [1] (setting [13]); 656 nM in assay [1] (setting [14]); 1970 nM in assay [1] (setting [15]). Also, the GI50 in assay [1] (setting [16]) turned out to be 652 nM; with A-431 (A-431 cells), 2200 nM; in the assay with PC-9, 710 nM.

For `CN1CCN(c2ccc3nc4n(c3c2)C23CCC(CN(CCOc5c(cnn5C)-c5cc(cn(C)c5=O)C(=O)N4)C2)C3)CC1` (single isomer, unassigned) [Example A63A], the GI50 in assay [1] (setting [10]) turned out to be 324 nM; in assay [1] (setting [11]), 540 nM; in assay [1] (setting [12]) it was 2370 nM; in assay [1] (setting [13]), 1020 nM; in assay [1] (setting [14]), 988 nM; in assay [1] (setting [15]) it was 3690 nM. For the same compound, the GI50 in assay [1] (setting [16]) is 929 nM; in the assay on A-431 (A-431 cells), 9370 nM; in the assay on PC-9, 841 nM.

On to `CN1CCN(C2CCN(c3ccc4nc5n(c4c3)C34CCC(CN(CCOc6c(cnn6C)-c6cc(cn(C)c6=O)C(=O)N5)C3)C4)C2)CC1` (single isomer, unassigned) [Example A80B, 15,21-Dimethyl-5-[3-(4-methylpiperazin-1-yl)pyrrolidin-1-yl]-23-oxa-2,9,11,15,20,21,26-heptaazaheptacyclo[24.4.1.1^{1,28}.1^{13,17}.0^{2,10}.0^{3,8}.0^{18,22}]tritriaconta-3,5,7,9,13,17(33),18(22),19-octaene-12,16-dione], for which the GI50 in assay [1] (setting [10]) was 0.69 nM; in assay [1] (setting [11]), 1.3 nM; in assay [1] (setting [12]), 0.69 nM; in assay [1] (setting [13]) it was 0.8 nM; in assay [1] (setting [14]), 2.5 nM; in assay [1] (setting [15]), 2.7 nM. In addition, the values for the GI50 (in assay [1] (setting [16]); in the assay on A-431 (A-431 cells); in the assay on PC-9) were 1.2 nM, 483 nM and 3.3 nM, respectively.

For the compound `C[C@@H]1CCCOc2c(cnn2C)-c2cc(cn(C)c2=O)C(=O)Nc2nc3ccc(N4CC(N5CCOCC5)C4)cc3n2C1` [Example A45], the GI50 in assay [1] (setting [2]) was 5.1 nM; in assay [1] (setting [3]), 16 nM; in assay [1] (setting [4]), 8.6 nM; in assay [1] (setting [5]), 14 nM; in assay [1] (setting [6]), 9.3 nM; in assay [1] (setting [7]), 29 nM. Besides, the GI50 was 20 nM in assay [1] (setting [8]); 245 nM in the assay with A-431 (setting [9]); 15 nM in the assay with PC-9 (Homo sapiens, PC-9, 72 h).

Regarding `C[C@@H]1CCCOc2c(cnn2C)-c2cc(cn(C)c2=O)C(=O)Nc2nc3ccc(N4CC5CN(C)CC5C4)cc3n2C1` (some centres unmarked) [Example A30], the GI50 worked out at 2.3 nM in assay [1] (setting [2]); 3.6 nM in assay [1] (setting [3]); 13 nM in assay [1] (setting [4]); 11 nM in assay [1] (setting [5]); 13 nM in assay [1] (setting [6]); 24 nM in assay [1] (setting [7]). Also, the GI50 in assay [1] (setting [8]) is 15 nM; with A-431 (setting [9]), 719 nM; in the assay on PC-9 (Homo sapiens, PC-9, 72 h) it was 17 nM.

Values taken from patent US20260365670A1, “EGFR INHIBITORS AND USES THEREOF” (DIZAL (JIANGSU) PHARMACEUTICAL CO., LTD., priority 2022, published 2026).
